Literature values as cited in US20230255250A1, “COMPOSITION FOR NUTRITIONAL SUPPLEMENTATION THAT PREVENTS DAMAGE CAUSED BY OXIDATIVE STRESS, HAVING AS PRINCIPLES XANTHOPHYLLS FROM MICROALGAE” (priority 2022, published 2023).

Legend:
[1] = test system: T lymphocytes
[2] = water at room temperature
[3] = doses less than 500 mg/kg intravenously
[4] = test system: dendritic cells

Substance: 2-Hydroxylpropyl-beta-cyclodextrin [HP-β-CD]
- proliferation and activation of T lymphocytes [1]: induces proliferation and activation
- solubility in water [2]: greater than 500 mg/mL
- toxicity [3]: not toxic
- regulation of molecules such as MHC proteins, and of PD-L1/L2 ([4]; HP-β-CD stimulated dendritic cells): remarkable regulation
- production of IL-6 ([4]; treated with HP-β-CD): increased
- production of IL-10 ([4]; treated with HP-β-CD): increased
- production of TNF-α ([4]; treated with HP-β-CD): increased
